Patent publication US20120107428A1, “REPELLENTS FOR PESTIFEROUS SOCIAL WASPS” (Sterling International Inc., priority 2010, published 2012)
Structures can show the parent of a compound that is named as a salt.

Legend:
[1] = test system: worker antennae of Vespula pensylvanica, Dolichovespula maculata, Polistes dominulus, and P. aurifer; assay: GC-EAD/MS analysis of SPME headspace samples of essential oils: antennal responses; settings: for antennal (EAD) response to component of pennyroyal oil / antennal (EAD) response to component of spearmint oil / antennal (EAD) response to component of geranium oil: V. pensylvanica, D. maculata, P. dominulus, or P. aurifer antennae; for antennal (EAD) response to component of rosemary oil: V. pensylvanica and D. maculata antennae, FIG. 3; for antennal (EAD) response to component of lemongrass oil: antennae of V. pensylvanica, D. maculata, and Polistes dominulus, FIG. 2
Experimental: Headspace volatiles from greater than 10 types of essential oils (1 ml each in a closed 20 ml glass vial) were sampled via Solid-Phase Micro-Extraction (SPME) (CAR/PDMS, 85 μm, Supelco, Bellefonte, Pa.) for 20-30 sec before GC-EAD and GC-MS analyses.
Paper wasp [European paper wasp (Polistes dominulus) or golden paper wasp (P. aurifer)] and yellowjacket [Western yellowjacket (Vespula pensylvanica) or Bald-faced hornet (Dolichovespula maculata)] workers for electrophysiological study were collected from their nests and kept alive at 4° C. before testing.
SPME samples of the various essential oils were injected splitless into a Varian CP-3800 GC equipped with a polar column (HP-INNOWAX; 30 m×0.53 mm×1.0 μm film thickness; Agilent Technologies, Wilmington, Del., USA) and a 1:1 effluent splitter that allowed simultaneous flame ionization detection (FID) and electroantennographic detection (EAD) of either a yellowjacket or paper wasp worker antenna to the separated volatile compounds. Helium was used as the carrier gas, and the injector and detector temperatures were 250° C. and 300° C., respectively. Column temperature was 50° C. for 1 min, rising to 240° C. at 10° C./min, and then held for 10 min. The outlet for the EAD was held in a humidified air stream flowing at 0.5 m/sec over the antennal preparation. EAD recordings were made using silver wire-glass capillary electrodes filled with Beadle-Ephrussi Ringer on freshly cut antennae. The antennal signals were stored and analyzed on a PC equipped with a serial IDAC interface box and the program EAD ver. 2.5 (Syntech, Hilversum, The Netherlands).
Compounds were identified by comparison of retention times with those of authentic standards and with mass spectra of standards.

[2] = test system: Yellowjackets (mainly Vespula pensylvanica (ca. 90%), plus V. vulgaris, V. germanica, and Dolichovespula maculata); assay: Field trapping, Rescue W•H•Y traps baited with attractant AA/2MB: captures of yellowjackets; assay type: in vivo; settings: for Mean/trap/visit ± SE Yellowjackets: attractant AA/2MB alone (row AA/2MB) or plus chemical, N 9; for reduction of trap catches of yellowjackets: Experiment 9
Experimental: (§1) Eleven field trapping experiments were carried out from late August to mid-October 2009 in residential and woody areas around Spokane, Wash., USA, mostly using the trap known by the designation Rescue® W•H•Y (except on one occasion that Rescue® Reusable Yellowjacket Traps were used for a natural food attractant; see below for details). The commercial W•H•Y trap has a top chamber and a bottom chamber and is described in U.S. Patent Application Publication No. 2009/0151228. The top chamber is baited with two attractants—one of which is a solid contained in a vial (2-methyl-1-butanol), and the other is a liquid mixed with water (acetic acid). The bottom chamber is baited with a liquid attractant (heptyl butyrate) poured onto a cotton pad. Separation of the two types of attractants (otherwise antagonistic to each other when released from the same chamber) in two chambers creates two focal attraction sources from one trap for different species of wasps, hornets, and yellowjackets. […] In a special occasion, the commercial Rescue® Reusable Yellowjacket Traps were each baited with 10 g of chopped bacon (loaded into a cartridge) as a natural protein food attractant. Traps were hung 1.5-2.0 m above the ground on either fences or tree branches ca. 5 m apart between each trap and at least 15 m between sets. For each trapping experiment, three sets of traps (i.e., three physical replicates of each treatment) were deployed with their initial trap positions within each set being randomized. To minimize positional effects and obtain more replications, wasp collections and trap re-randomization were carried out when 5-10 wasps were caught in the best traps. Each replicate lasted several days depending on wasp flight activity. Captured wasps were removed from the traps and kept in the zip-bags before returning to the laboratory for recording of the species, gender status, and catch. Repellent candidates (individuals or mixtures) were released from polyethylene bags (3×5 cm; with a fabric felt) with various thicknesses from 2-12 mil (see release rates listed in tables); they were employed inside the same trap chamber as the attractant.
(§2) Experiment 1 tested five individual essential oils (pennyroyal, lemongrass, peppermint, clove, and citronella) and two known mosquito repellents (i.e., major components of catnip oil), E/Z-nepetalactone and Z/E-nepetalactone plus a blank control against a mixture of attractant [acetic acid (AA) and 2-methyl-1-butanol (2 MB)] using the W•H•Y traps (both attractant and repellent candidates were released from the top chamber) from for eight consecutive days from August to early September. Experiment 2 tested nine individual essential oils (ylang ylang, vetiver, myrrh, patchouli, geranium, eucalyptus, camphor, spearmint, and wintergreen) plus a blank control against a mixture of attractant (AA+2 MB) using the W•H•Y traps (both attractant and repellent candidates were released from the top chamber) for eight consecutive days from late August to early September. Experiment 3 tested seven individual essential oils (Roman chamomile, sage, fennel seed, rosemary, thyme, anise, and lavender) plus a blank control against a mixture of attractant (AA+2 MB) using the W•H•Y traps (both attractant and repellent candidates were released from the top chamber) for eight consecutive days from late August to early September. Experiment 4 tested two essential oil mixtures (3EO-mix: clove, geranium, and lemongrass in ca. 1:1:1 ratio; and 4EO-mix: clove, geranium, lemongrass, and rosemary in ca. 1:1:1:1 ratio) plus a blank control against a mixture of attractant (AA+2 MB) using the W•H•Y traps (both attractant and repellent candidates were released from the top chamber) for 13 consecutive days in September; the essential oil mixtures alone without attractant were tested in the same experiment.

[3] = test system: Paper wasps (mainly Polistes dominulus, plus a few of P. aurifer); assay: Field trapping, Rescue W•H•Y traps baited with attractant AA/2MB: captures of paper wasps; assay type: in vivo; settings: for Mean/trap/visit ± SE Paper wasps: attractant AA/2MB alone (row AA/2MB) or plus chemical, N 9; for decrease of trap catches of paper wasps: Experiment 9
Experimental: as §1, §2

[4] = V. pensylvanica and P. dominulus worker antennae
[5] = Table 9, Experiment 10, 18 days end of September through mid-October
[6] = Table 8, Experiment 9, 13 days in September
[7] = Table 7, Experiment 8, 13 days in September

COC(=O)c1ccccc1 [Methyl benzoate, methyl benzoate]
antennal (EAD) response to component of ylang ylang oil [1, 4]: strong and repeatable antennal responses | Mean/trap/visit ± SE Yellowjackets [2, 5]: 5.2 ± 2.2 ab wasps/trap/visit | Mean/trap/visit ± SE Paper wasps [3, 5]: 1.9 ± 0.8 ab wasps/trap/visit

CC(C)=C1CC[C@@H](C)CC1=O [Pulegone, pulegone]
antennal (EAD) response to component of pennyroyal oil [1]: significant and consistent EAD-responses | Mean/trap/visit ± SE Yellowjackets [2, 5]: 6.4 ± 1.8 abc wasps/trap/visit | Mean/trap/visit ± SE Paper wasps [3, 5]: 0.2 ± 0.1 a wasps/trap/visit

C=CCc1ccc(O)c(OC)c1 [Eugenol, eugenol]
antennal (EAD) response to component of clove oil [1, 4]: strong and repeatable antennal responses | reduction of trap catches of yellowjackets ([2]; AA/2 MB): > 95% | Mean/trap/visit ± SE Yellowjackets [2, 6]: 1.7 ± 0.7 a wasps/trap/visit | decrease of trap catches of paper wasps ([3]; AA/2 MB): 58% | Mean/trap/visit ± SE Paper wasps [3, 6]: 2.0 ± 0.5 ab wasps/trap/visit

Cc1ccc(C(C)C)cc1 [p-cymene]
antennal (EAD) response to component of sage oil [1, 4]: strong and repeatable antennal responses

CCCCCC(O)CC (stereo not drawn) [3-Octanol, 3-octanol]
antennal (EAD) response to component of pennyroyal oil [1]: significant and consistent EAD-responses | antennal (EAD) response to component of spearmint oil [1]: significant and consistent EAD-responses | Mean/trap/visit ± SE Yellowjackets [2, 5]: 6.9 ± 2.4 ab wasps/trap/visit | Mean/trap/visit ± SE Paper wasps [3, 5]: 1.1 ± 0.8 a wasps/trap/visit

CC1=CCC2CC1C2(C)C (stereo not drawn) [α-pinene]
antennal (EAD) response to component of rosemary oil [1]: significant EAD-responses | antennal (EAD) response to component of sage oil [1, 4]: strong and repeatable antennal responses

C=CC(C)(O)CCC=C(C)C (stereo not drawn) [Linalool, linalool]
antennal (EAD) response to component of lavender oil [1, 4]: strong and repeatable antennal responses | antennal (EAD) response to component of ylang ylang oil [1, 4]: strong and repeatable antennal responses | antennal (EAD) response to component of lemongrass oil [1]: strongly responded | repellency at the doses tested ([2]; Experiment 8, AA/2 MB): not significantly repellent | Mean/trap/visit ± SE Yellowjackets [2, 7]: 23.9 ± 4.0 b wasps/trap/visit | Mean/trap/visit ± SE Paper wasps [3, 7]: 5.2 ± 3.5 a wasps/trap/visit

CC12CCC(CC1)C(C)(C)O2 [1,8-Cineole, 1,8-cineole]
antennal (EAD) response to component of rosemary oil [1]: significant EAD-responses | antennal (EAD) response to component of lavender oil [1, 4]: strong and repeatable antennal responses | antennal (EAD) response to component of sage oil [1, 4]: strong and repeatable antennal responses | antennal (EAD) response to component of spearmint oil [1]: significant and consistent EAD-responses | repellency at the doses tested ([2]; Experiment 8, AA/2 MB): not significantly repellent | Mean/trap/visit ± SE Yellowjackets [2, 7]: 18.2 ± 4.1 b wasps/trap/visit | Mean/trap/visit ± SE Paper wasps [3, 7]: 4.6 ± 1.8 a wasps/trap/visit

CC(=O)OCc1ccccc1 [Benzyl acetate, benzyl acetate]
antennal (EAD) response to component of ylang ylang oil [1, 4]: strong and repeatable antennal responses | Mean/trap/visit ± SE Yellowjackets [2, 5]: 8.2 ± 3.0 abc wasps/trap/visit | Mean/trap/visit ± SE Paper wasps [3, 5]: 0.9 ± 0.5 a wasps/trap/visit

CCCCCC(=O)CCC [4-nonanone]
antennal (EAD) response to component of lemongrass oil [1]: strongly responded

CC(C)=CCCC(C)CC=O (stereo not drawn) [Citronellal, citronellal]
antennal (EAD) response to component of citronella oil [1, 4]: strong and repeatable antennal responses | Mean/trap/visit ± SE Yellowjackets [2, 5]: 11.4 ± 5.2 bc wasps/trap/visit | Mean/trap/visit ± SE Paper wasps [3, 5]: 0.4 ± 0.2 a wasps/trap/visit

CC(C)[C@@H]1CC[C@@H](C)CC1=O [Menthone, menthone]
antennal (EAD) response to component of geranium oil [1]: significant and consistent EAD-responses | antennal (EAD) response to component of pennyroyal oil [1]: significant and consistent EAD-responses | yellowjackets caught, attractant plus compound versus attractant alone ([2]; Experiment 8, AA/2 MB): four times less | Mean/trap/visit ± SE Yellowjackets [2, 7]: 7.7 ± 3.4 a wasps/trap/visit | trap catch reduction to the paper wasps ([3]; Experiment 8, AA/2 MB, not statistically different from the attractant alone): > 50% | Mean/trap/visit ± SE Paper wasps [3, 7]: 2.1 ± 1.3 a wasps/trap/visit

E/Z-citral
reduction of trap catches of yellowjackets ([2]; AA/2 MB): more than 70% | Mean/trap/visit ± SE Yellowjackets [2, 6]: 11.6 ± 5.8 a wasps/trap/visit | decrease of trap catches of paper wasps ([3]; AA/2 MB): 88% | Mean/trap/visit ± SE Paper wasps [3, 6]: 0.6 ± 0.3 a wasps/trap/visit

CC(=O)CCC=C(C)C [6-Methyl-5-hepten-2-one, 6-methyl-5-hepten-2-one]
antennal (EAD) response to component of lemongrass oil [1]: strongly responded | repellency at the doses tested ([2]; Experiment 8, AA/2 MB): not significantly repellent | Mean/trap/visit ± SE Yellowjackets [2, 7]: 21.9 ± 3.8 b wasps/trap/visit | Mean/trap/visit ± SE Paper wasps [3, 7]: 4.8 ± 2.3 a wasps/trap/visit

α/β-thujone
antennal (EAD) response to component of sage oil [1, 4]: strong and repeatable antennal responses | Mean/trap/visit ± SE Yellowjackets [2, 5]: 4.9 ± 1.6 ab wasps/trap/visit | Mean/trap/visit ± SE Paper wasps [3, 5]: 0.2 ± 0.1 a wasps/trap/visit

C=C(C)[C@H]1CC=C(C)C(=O)C1 [d-Carvone, d-carvone]
antennal (EAD) response to component of spearmint oil [1]: significant and consistent EAD-responses | Mean/trap/visit ± SE Yellowjackets [2, 5]: 4.9 ± 2.2 ab wasps/trap/visit | Mean/trap/visit ± SE Paper wasps [3, 5]: 0.9 ± 0.5 a wasps/trap/visit

cis/trans-rose oxides
antennal (EAD) response to component of geranium oil [1]: significant and consistent EAD-responses

CC(C)=CCC/C(C)=C\C=O [Z-citral]
antennal (EAD) response to component of lemongrass oil [1]: strongly responded

CC(C)=CCC/C(C)=C/C=O [E-citral]
antennal (EAD) response to component of lemongrass oil [1]: strongly responded

CC(C)=CCCC(C)CCOC=O (stereo not drawn) [citronyl formate, citronellyl formate]
antennal (EAD) response to component of geranium oil [1]: significant and consistent EAD-responses

C=C1CC[C@@H]2[C@H]1[C@H]1[C@H](C(C)C)CC[C@]12C [β-bourberene]
antennal (EAD) response to component of geranium oil [1]: significant and consistent EAD-responses
